Calls of active or inactive are those of the source. The calls are words filed in the database; no cut-off is given here.
Tests used:
Homo sapiens [1] = species on record: Homo sapiens; test: Selectivity ratio of IC50 for ATR derived from human HeLa cell cytoplasmic extract to IC50 for ATM derived from human HeLa cell nuclear extract
[2] = target: Serine-protein kinase ATM (Homo sapiens, UniProt Q13315); test: Inhibition of ATM derived from human HeLa cell nuclear extract using glutathione S-transferase p53N66 as substrate preincubated for 10 mins followed by ATP addition and subsequent incubation for 1 hr measured after 1.5 hrs by ELISA
Homo sapiens [3] = species on record: Homo sapiens; test: Selectivity ratio of IC50 for mTOR derived from human HeLa cells to IC50 for ATM derived from human HeLa cell nuclear extract
Homo sapiens [4] = species on record: Homo sapiens; test: Selectivity ratio of IC50 for DNA-PK derived from human HeLa cells to IC50 for ATM derived from human HeLa cell nuclear extract
Homo sapiens [5] = species on record: Homo sapiens; test: Selectivity ratio of IC50 for PI3K derived from human HeLa cells to IC50 for ATM derived from human HeLa cell nuclear extract
[6] = Apparent permeability across apical to basolateral side in human Caco2 cells at pH 6.5; assay type: ADME, cell-based; conditions: Caco-2, pH 6.5
[7] = Tmax in patient with solid tumor at 15 mg, po bid by LC-MS/MS analysis; assay type: ADME, organism-based; conditions: human, in vivo
[8] = target: Phosphatidylinositol 4,5-bisphosphate 3-kinase catalytic subunit gamma isoform (Homo sapiens, UniProt P48736); test: Inhibition of human PI3Kgamma (S144 to A1102 residues) expressed in mammalian expression system
Homo sapiens [9] = test: Potentiation of […]-induced tumor regression against human HBCx-10 cells xenografted in immunocompromised mouse at 5 mg/kg, po qd administered on days 1 to 3 of weekly cycle; assay type: functional, organism-based
[10] = Thermodynamic solubility of the compound in 0.1M aqueous phosphate buffer at pH 7.4 after 24 hrs by LC-UV analysis; assay type: physicochemical; conditions: read-out: Therm_solubility
[11] = AUC (0 to 12 hrs) in patient with solid tumor at 60 mg, po bid by LC-MS/MS analysis; assay type: ADME, organism-based; design: dose 60 mg, time < 12 hr, route oral; conditions: human, in vivo
[12] = target: Serine/threonine-protein kinase mTOR (Homo sapiens) (UniProt P42345); test: Inhibition of human m-TOR (L1382 to W2549 residues) expressed in mammalian expression system at 1 uM relative to control
[13] = Solubility of the compound in simulated gastric fluid; assay type: physicochemical
Cytochrome P450 2C9 = Cytochrome P450 2C9 (Homo sapiens, UniProt P11712); test: Inhibition of human CYP2C9; assay type: ADME
[14] = target: Phosphatidylinositol 4,5-bisphosphate 3-kinase catalytic subunit beta isoform (Homo sapiens, UniProt P42338); test: Inhibition of human PI3Kbeta (P118 to S1070 residues) expressed in mammalian expression system
[15] = Fraction unbound in rat plasma
SW-620 [16] = test: Potentiation of irinotecan-induced tumor regression against human SW620 cells xenografted in immunocompromised mouse at 20 mg/kg, po qd administered on days 2 to 4 of weekly cycle; assay type: functional, organism-based
[17] = Apparent permeability across apical to basolateral side in MDCK cells overexpressing MDR1; assay type: ADME, cell-based, Canis lupus familiaris; conditions: dog
Mus musculus [18] = test: Toxicity in immunocompromised mouse xenografted with human HBCx-10 cells at 5 mg/kg, po qd administered on days 1 to 3 of weekly cycle in presence of olaparib; assay type: organism-based; conditions: in vivo
Cytochrome P450 2D6 = Cytochrome P450 2D6 (Homo sapiens, UniProt P10635); test: Inhibition of human CYP2D6; assay type: ADME
[19] = Volume of distribution at steady state in dog; assay type: ADME, organism-based, Canis lupus familiaris; conditions: in vivo, read-out: Vdss
[20] = Solubility of the compound in FaSSIF; assay type: physicochemical
[21] = Tmax in patient with solid tumor at 120 mg, po bid by LC-MS/MS analysis; assay type: ADME, organism-based; conditions: human, in vivo
Cytochrome P450 1A2 = target: T1, Cytochrome P450 1A2 (Homo sapiens, UniProt P05177); test: Inhibition of human CYP1A2; assay type: ADME
T1 sequence (P05177 whole entry): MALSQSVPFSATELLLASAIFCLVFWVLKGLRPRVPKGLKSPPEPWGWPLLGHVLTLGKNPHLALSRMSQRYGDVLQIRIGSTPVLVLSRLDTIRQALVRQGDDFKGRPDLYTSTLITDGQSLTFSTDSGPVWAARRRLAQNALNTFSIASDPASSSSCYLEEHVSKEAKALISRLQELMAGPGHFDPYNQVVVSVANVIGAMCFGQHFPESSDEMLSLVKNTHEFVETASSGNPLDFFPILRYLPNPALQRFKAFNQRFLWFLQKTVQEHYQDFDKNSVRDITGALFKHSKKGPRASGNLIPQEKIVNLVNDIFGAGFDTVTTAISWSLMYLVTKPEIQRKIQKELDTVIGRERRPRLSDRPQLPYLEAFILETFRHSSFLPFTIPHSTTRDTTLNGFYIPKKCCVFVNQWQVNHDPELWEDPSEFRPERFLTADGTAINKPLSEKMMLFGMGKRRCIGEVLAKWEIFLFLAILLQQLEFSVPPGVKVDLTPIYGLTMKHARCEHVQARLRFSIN

[22] = Oral bioavailability in rat; assay type: ADME, organism-based; conditions: in vivo
[23] = Cmax in patient with solid tumor at 30 mg, po bid by LC-MS/MS analysis; assay type: ADME, organism-based; design: dose 30 mg, route oral; conditions: human, in vivo
[24] = target: T2, Phosphatidylinositol 4,5-bisphosphate 3-kinase catalytic subunit delta isoform (Homo sapiens, UniProt O00329); test: Inhibition of human PI3Kdelta (R108 to Q1044 residues) expressed in mammalian expression system
T2 sequence (O00329 whole entry): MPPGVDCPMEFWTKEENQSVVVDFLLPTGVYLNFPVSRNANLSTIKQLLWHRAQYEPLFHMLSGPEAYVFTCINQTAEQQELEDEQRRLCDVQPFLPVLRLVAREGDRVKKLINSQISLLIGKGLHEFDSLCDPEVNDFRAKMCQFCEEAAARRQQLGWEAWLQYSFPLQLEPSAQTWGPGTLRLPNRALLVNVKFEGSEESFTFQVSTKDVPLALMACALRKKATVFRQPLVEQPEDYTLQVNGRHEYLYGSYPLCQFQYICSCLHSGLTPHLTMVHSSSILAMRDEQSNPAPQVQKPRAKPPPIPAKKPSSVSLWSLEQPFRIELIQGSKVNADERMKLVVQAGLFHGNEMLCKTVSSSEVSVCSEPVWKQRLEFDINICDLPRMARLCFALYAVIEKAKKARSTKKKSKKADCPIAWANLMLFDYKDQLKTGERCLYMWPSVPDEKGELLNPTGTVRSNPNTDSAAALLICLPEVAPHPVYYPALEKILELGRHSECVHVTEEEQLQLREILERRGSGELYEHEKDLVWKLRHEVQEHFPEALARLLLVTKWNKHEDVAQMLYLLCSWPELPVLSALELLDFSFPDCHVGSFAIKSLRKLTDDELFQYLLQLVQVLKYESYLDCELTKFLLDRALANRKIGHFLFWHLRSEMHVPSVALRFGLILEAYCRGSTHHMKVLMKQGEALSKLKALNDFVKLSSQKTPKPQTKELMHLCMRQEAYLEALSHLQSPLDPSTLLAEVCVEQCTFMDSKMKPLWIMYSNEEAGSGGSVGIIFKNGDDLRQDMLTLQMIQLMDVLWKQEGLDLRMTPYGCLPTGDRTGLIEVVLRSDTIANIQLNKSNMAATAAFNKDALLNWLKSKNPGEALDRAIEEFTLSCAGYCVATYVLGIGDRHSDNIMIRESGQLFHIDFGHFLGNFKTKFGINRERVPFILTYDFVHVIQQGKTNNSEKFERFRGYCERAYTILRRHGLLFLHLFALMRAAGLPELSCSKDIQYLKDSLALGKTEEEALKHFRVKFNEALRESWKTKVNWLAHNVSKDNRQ

Cytochrome P450 3A4 = Cytochrome P450 3A4 (Homo sapiens, UniProt P08684); test: Inhibition of human CYP3A4; assay type: ADME
[25] = Tmax in patient with solid tumor at 30 mg, po bid by LC-MS/MS analysis; assay type: ADME, organism-based; conditions: human, in vivo
[26] = Cmax in patient with solid tumor at 60 mg, po bid by LC-MS/MS analysis; assay type: ADME, organism-based; design: dose 60 mg, route oral; conditions: human, in vivo
[27] = AUC (0 to 12 hrs) in patient with solid tumor at 15 mg, po bid by LC-MS/MS analysis; assay type: ADME, organism-based; design: time < 12 hr, dose 15 mg, route oral; conditions: human, in vivo
[28] = Solubility of the compound in phosphate buffer at pH 6.5; assay type: physicochemical
[29] = Oral bioavailability in dog; assay type: ADME, organism-based, Canis lupus familiaris; conditions: in vivo
Cytochrome P450 2C19 = Cytochrome P450 2C19 (Homo sapiens, UniProt P33261); test: Inhibition of human CYP2C19; assay type: ADME
[30] = AUC (0 to 12 hrs) in patient with solid tumor at 30 mg, po bid by LC-MS/MS analysis; assay type: ADME, organism-based; design: time < 12 hr, dose 30 mg, route oral; conditions: human, in vivo
[31] = Cmax in patient with solid tumor at 15 mg, po bid by LC-MS/MS analysis; assay type: ADME, organism-based; design: dose 15 mg, route oral; conditions: human, in vivo
SW-620 [32] = test: Antitumor activity against human SW620 cells xenografted in immunocompromised mouse assessed as tumor regression at 20 mg/kg, po qd administered on days 2 to 4 of weekly cycle; assay type: functional, organism-based
[33] = Tmax in patient with solid tumor at 60 mg, po bid by LC-MS/MS analysis; assay type: ADME, organism-based; conditions: human, in vivo
[34] = Volume of distribution at steady state in rat; assay type: ADME, organism-based; conditions: in vivo, read-out: Vdss
[35] = Cmax in patient with solid tumor at 120 mg, po bid by LC-MS/MS analysis; assay type: ADME, organism-based; design: dose 120 mg, route oral; conditions: human, in vivo
Mus musculus [36] = test: Toxicity in immunocompromised mouse xenografted with human SW620 cells at 20 mg/kg, po qd administered on days 2 to 4 of weekly cycle in presence of irinotecan; assay type: organism-based; conditions: in vivo
[37] = Apparent permeability across apical to basolateral side in human Caco2 cells; assay type: ADME, cell-based; conditions: Caco-2
[38] = AUC (0 to 12 hrs) in patient with solid tumor at 120 mg, po bid by LC-MS/MS analysis; assay type: ADME, organism-based; design: dose 120 mg, time < 12 hr, route oral; conditions: human, in vivo
[39] = Dissociation constant, pKa of the compound; assay type: physicochemical
[40] = Buffer/octanol partition coefficient, log D of the compound at pH 7.4 by shake flask method; assay type: physicochemical

Chain of Cytochrome P450 2C19 (P33261 whole entry): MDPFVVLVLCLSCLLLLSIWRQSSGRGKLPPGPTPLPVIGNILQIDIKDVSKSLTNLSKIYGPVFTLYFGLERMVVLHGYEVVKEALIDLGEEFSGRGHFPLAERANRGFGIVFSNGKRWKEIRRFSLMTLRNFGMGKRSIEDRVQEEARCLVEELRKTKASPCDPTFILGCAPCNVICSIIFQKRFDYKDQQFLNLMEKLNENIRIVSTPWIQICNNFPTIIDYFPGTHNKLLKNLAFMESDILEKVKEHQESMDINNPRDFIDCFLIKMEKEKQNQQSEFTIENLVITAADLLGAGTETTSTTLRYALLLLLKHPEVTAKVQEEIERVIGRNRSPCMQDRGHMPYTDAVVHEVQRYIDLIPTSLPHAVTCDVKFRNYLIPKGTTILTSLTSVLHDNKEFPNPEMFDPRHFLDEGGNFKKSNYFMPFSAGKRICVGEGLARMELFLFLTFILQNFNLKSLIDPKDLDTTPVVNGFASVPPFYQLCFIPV
Chain of Cytochrome P450 2D6 (P10635 whole entry): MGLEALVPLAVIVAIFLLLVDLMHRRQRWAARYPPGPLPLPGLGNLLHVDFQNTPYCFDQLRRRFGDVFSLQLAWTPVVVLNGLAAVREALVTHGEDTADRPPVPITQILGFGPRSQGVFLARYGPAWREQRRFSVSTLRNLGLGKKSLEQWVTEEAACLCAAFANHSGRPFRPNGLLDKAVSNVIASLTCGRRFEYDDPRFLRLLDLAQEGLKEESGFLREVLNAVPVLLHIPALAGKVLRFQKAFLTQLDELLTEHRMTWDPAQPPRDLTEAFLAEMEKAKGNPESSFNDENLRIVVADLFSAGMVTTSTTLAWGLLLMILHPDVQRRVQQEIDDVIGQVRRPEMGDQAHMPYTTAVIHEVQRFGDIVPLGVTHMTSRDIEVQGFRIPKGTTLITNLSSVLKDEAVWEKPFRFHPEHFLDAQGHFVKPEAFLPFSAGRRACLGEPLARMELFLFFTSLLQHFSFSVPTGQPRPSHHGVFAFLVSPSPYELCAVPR
Chain of Phosphatidylinositol 4,5-bisphosphate 3-kinase catalytic subunit gamma isoform (P48736 whole entry, the tested form may be a part, canonical isoform): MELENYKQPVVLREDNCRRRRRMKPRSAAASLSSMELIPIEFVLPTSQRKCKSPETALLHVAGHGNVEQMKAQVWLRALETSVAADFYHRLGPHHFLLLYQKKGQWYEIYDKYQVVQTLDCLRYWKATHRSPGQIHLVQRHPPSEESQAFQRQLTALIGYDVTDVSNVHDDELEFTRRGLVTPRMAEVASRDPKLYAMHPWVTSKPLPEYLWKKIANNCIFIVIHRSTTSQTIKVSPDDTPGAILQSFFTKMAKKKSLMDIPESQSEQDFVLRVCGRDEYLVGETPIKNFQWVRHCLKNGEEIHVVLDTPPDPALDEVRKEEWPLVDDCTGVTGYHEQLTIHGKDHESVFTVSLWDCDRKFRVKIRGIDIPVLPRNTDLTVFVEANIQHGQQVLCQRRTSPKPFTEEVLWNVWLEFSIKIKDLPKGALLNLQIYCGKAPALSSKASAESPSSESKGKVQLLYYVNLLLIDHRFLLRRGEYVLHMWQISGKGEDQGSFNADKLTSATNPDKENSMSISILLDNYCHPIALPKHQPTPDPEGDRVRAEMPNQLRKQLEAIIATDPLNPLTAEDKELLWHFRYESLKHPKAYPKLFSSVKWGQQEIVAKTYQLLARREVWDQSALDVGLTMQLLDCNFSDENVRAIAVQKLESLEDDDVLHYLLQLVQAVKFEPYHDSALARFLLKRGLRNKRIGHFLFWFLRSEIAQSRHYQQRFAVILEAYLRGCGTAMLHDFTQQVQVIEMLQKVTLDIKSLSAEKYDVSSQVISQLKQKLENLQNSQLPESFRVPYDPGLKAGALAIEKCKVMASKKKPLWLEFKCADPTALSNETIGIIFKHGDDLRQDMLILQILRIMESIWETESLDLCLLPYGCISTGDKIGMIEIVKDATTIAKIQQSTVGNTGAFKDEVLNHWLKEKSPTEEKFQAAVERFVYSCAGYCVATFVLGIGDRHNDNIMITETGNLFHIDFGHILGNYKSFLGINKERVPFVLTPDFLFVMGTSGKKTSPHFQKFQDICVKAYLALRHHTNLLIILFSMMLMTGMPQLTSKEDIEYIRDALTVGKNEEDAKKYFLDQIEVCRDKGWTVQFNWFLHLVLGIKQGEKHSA
Chain of Phosphatidylinositol 4,5-bisphosphate 3-kinase catalytic subunit beta isoform (P42338 whole entry, the tested form may be a part, canonical isoform): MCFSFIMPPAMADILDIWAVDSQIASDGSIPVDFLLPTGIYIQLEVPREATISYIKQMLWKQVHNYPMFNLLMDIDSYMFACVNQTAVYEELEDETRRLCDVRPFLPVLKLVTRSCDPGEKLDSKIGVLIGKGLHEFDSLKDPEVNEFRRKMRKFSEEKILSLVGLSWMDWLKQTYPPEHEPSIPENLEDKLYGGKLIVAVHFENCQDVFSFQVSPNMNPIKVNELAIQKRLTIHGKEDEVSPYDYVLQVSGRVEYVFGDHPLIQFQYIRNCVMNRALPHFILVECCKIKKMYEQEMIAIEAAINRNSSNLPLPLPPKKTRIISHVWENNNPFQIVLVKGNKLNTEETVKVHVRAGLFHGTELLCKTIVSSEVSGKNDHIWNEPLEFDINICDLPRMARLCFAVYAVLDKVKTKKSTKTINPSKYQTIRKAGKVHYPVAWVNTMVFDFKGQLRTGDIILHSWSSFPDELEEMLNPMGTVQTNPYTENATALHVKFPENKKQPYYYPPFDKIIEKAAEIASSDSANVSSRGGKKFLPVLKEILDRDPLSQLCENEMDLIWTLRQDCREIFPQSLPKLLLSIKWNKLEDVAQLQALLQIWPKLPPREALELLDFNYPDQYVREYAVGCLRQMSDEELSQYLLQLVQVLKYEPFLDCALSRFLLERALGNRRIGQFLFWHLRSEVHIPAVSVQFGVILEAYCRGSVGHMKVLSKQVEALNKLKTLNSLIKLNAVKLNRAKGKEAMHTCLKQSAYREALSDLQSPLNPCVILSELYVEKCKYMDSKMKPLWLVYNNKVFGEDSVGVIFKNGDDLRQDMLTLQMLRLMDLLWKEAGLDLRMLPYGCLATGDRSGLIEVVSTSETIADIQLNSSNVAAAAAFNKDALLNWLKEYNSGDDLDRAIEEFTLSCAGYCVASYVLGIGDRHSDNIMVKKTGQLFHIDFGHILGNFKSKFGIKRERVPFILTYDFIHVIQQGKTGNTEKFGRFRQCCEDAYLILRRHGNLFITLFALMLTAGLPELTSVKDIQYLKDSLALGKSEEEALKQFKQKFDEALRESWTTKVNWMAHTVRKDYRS
Chain of Cytochrome P450 2C9 (P11712 whole entry, the tested form may be a part, canonical isoform): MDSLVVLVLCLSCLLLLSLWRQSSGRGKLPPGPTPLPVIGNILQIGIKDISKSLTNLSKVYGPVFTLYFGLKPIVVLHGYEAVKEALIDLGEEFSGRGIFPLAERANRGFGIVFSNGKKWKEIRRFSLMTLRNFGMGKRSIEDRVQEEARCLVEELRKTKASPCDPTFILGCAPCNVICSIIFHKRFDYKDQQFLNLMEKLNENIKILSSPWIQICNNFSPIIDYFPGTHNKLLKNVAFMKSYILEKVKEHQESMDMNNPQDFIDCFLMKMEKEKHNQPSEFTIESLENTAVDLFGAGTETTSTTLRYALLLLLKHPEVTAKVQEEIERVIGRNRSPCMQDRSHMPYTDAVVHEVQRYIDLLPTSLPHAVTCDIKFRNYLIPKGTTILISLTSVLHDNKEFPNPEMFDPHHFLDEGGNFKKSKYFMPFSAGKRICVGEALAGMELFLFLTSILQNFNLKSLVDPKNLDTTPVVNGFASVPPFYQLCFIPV
Chain of Cytochrome P450 3A4 (P08684 whole entry): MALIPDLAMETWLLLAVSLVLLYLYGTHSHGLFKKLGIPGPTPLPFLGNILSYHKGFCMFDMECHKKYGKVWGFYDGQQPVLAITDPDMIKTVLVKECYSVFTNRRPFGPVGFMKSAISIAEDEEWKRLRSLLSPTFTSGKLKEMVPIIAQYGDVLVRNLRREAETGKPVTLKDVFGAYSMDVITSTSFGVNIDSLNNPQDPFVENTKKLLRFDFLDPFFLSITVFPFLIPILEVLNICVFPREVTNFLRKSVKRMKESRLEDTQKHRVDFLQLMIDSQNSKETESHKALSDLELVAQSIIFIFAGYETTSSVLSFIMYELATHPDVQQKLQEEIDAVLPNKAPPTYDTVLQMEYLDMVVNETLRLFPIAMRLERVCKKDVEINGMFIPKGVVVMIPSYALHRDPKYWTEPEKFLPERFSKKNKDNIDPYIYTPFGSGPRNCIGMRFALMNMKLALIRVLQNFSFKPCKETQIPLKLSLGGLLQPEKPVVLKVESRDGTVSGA

CN1CCN(CCC(=O)Nc2ccc3c(c2)Sc2cccc(-c4cc(=O)cc(N5CCOCC5)o4)c2S3)CC1
Ratio IC50 (Homo sapiens [1]): > 300
IC50 [2]: 0.003 µM
Ratio IC50 (Homo sapiens [3]): > 300
Ratio IC50 (Homo sapiens [4]): > 300
Ratio IC50 (Homo sapiens [5]): > 300

CN(C)CCCOc1ccc(-c2ccc3ncc4c(c3c2)n(C2CCOCC2)c(=O)n4C)cn1
Papp A→B [6]: 190 nm/s
Tmax [7]: 2 h
IC50 [8]: 1.1 µM
Activity (Homo sapiens [9]): Active
solubility thermodynamic at 24 h [10]: > 800 µM
AUC at 12 h [11]: 0.206 µg·h/mL
inhibition [12]: 93%
solubility [13]: > 5 mg/mL
IC50 (Cytochrome P450 2C9): > 30 µM
IC50 [14]: 1.8 µM
fraction unbound [15]: 0.11
Activity (SW-620 [16]): Active
Papp A→B [17]: 66 nm/s
Activity (Mus musculus [18]): Non-Toxic
IC50 (Cytochrome P450 2D6): > 30 µM
Vd [19]: 17.6 L/kg
solubility [20]: > 5 mg/mL
Tmax [21]: 2.5 h
IC50 (Cytochrome P450 1A2): > 30 µM
bioavailability [22]: 57%
Cmax [23]: 0.0175 µg/mL
IC50 [24]: 0.27 µM
IC50 (Cytochrome P450 3A4): > 30 µM
Tmax [25]: 2 h
Cmax [26]: 0.0396 µg/mL
AUC at 12 h [27]: 0.0404 µg·h/mL
solubility [28]: > 5 mg/mL
bioavailability [29]: 54%
IC50 (Cytochrome P450 2C19): > 30 µM
AUC at 12 h [30]: 0.105 µg·h/mL
Cmax [31]: 0.00667 µg/mL
Activity (SW-620 [32]): inactive
Tmax [33]: 2.5 h
Vd [34]: 4.3 L/kg
Cmax [35]: 0.0588 µg/mL
Activity (Mus musculus [36]): Non-Toxic
Papp A→B [37]: 56 nm/s
AUC at 12 h [38]: 0.33 µg·h/mL
pKa [39]: 9.6
logD [40]: 1.5

Source: ChEMBL document CHEMBL4152224, “The Identification of Potent, Selective, and Orally Available Inhibitors of Ataxia Telangiectasia Mutated (ATM) Kinase: The Discovery of AZD0156 (8-{6-[3-(Dimethylamino)propoxy]pyridin-3-yl}-3-methyl-1-(tetrahydro-2 H-pyran-4-yl)-1,3-dihydro-2 H-imidazo[4,5- c]quinolin-2-one)” (J Med Chem, 2018)
